Tested on: c-myc in 22RV-1 cells
Assay: Human c-myc ELISA assay
Assay type: cell-based
Details: Homo sapiens; for Emax: 22Rv1, 18 h, read-out: Degradation of BRD4: Maximum inhibition (%) c-Myc ELISA in 22RV1 cells; for DC50: 22Rv1, read-out: Degradation of BRD4: DC50 (uM) c-Myc ELISA in 22RV1 cells
Summary of the method: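 22RV-1 cells treated 18 h with 8-point 1:3 compound dilutions (final top 300 nM or 1 μM, 0.1% DMSO). Cells lysed in RIPA buffer with protease/phosphatase inhibitors, and c-myc protein in cleared lysate quantified by ELISA against a standard curve. DC50 reported for c-myc suppression.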

Structure (SMILES)	DC50	Emax
Cc1ncsc1-c1ccc([C@H](C)NC(=O)[C@@H]2C[C@@H](O)CN2C(=O)[C@@H](NC(=O)CN2CCC(N3CCC(NC(=O)C[C@@H]4N=C(c5ccc(Cl)cc5)c5c(sc(C)c5C)-n5c(C)nnc54)CC3)CC2)C(C)(C)C)cc1 [Example 353, (2S,4R)-1-[(2S)-2-{2-[4-(4-{2-[(9S)-7-(4-chlorophenyl)-4,5,13-trimethyl-3-thia-1,8,11,12-tetraazatricyclo[8.3.0.0^2,6]trideca-2(6),4,7,10,12-[0261]pentaen-9-yl]acetamido}piperidin-1-yl)piperidin-1-yl]acetamido}-3,3-dimethylbutanoyl]-4-hydroxy-N-[(1S)-1-[4-(4-methyl-1,3-thiazol-5-yl)phenyl]ethyl]pyrrolidine-2-carboxamide]	0.1 to 1 µM	> 90%
Cc1ncsc1-c1ccc([C@H](C)NC(=O)[C@@H]2C[C@@H](O)CN2C(=O)C(C(C)C)n2cc(-c3cc(F)cc(O[C@H]4C[C@@H](NC(=O)C[C@@H]5N=C(c6ccc(Cl)cc6)c6c(sc(C)c6C)-n6c(C)nnc65)C4)c3)cn2)cc1 (stereo partly shown) [Example 214]	0.01 to 0.1 µM	97%
Cc1ncsc1-c1ccc([C@H](C)NC(=O)[C@@H]2C[C@@H](O)CN2C(=O)[C@@H](NC(=O)Cc2cccc(O[C@H]3C[C@@H](NC(=O)C[C@@H]4N=C(c5ccc(Cl)cc5)c5c(sc(C)c5C)-n5c(C)nnc54)C3)c2)C(C)(C)C)cc1 [Example 204]	0.01 to 0.1 µM	88%
Cc1ncsc1-c1ccc([C@H](C)NC(=O)[C@@H]2C[C@@H](O)CN2C(=O)[C@@H](C(C)C)n2cc(-c3ccc(N4CCN(C(=O)C[C@@H]5N=C(c6ccc(Cl)cc6)c6c(sc(C)c6C)-n6c(C)nnc65)CC4)nc3)cn2)cc1 [Example 321]	0.1 to 1 µM	56%
Cc1ncsc1-c1ccc(CNC(=O)[C@@H]2C[C@@H](O)CN2C(=O)[C@@H](NC(=O)CCCCCCCCNC(=O)C[C@@H]2N=C(c3ccc(Cl)cc3)c3c(sc(C)c3C)-n3c(C)nnc32)C(C)(C)C)cc1 [Example 68]	0.01 to 0.1 µM	95.4%
Cc1ncsc1-c1ccc(CNC(=O)[C@@H]2C[C@@H](O)CN2C(=O)[C@@H](NC(=O)COCCCOCCCCOc2ccc3c(c2)c2c(C(N)=O)cc(-c4c(C)noc4C)cc2n3Cc2ccccc2)C(C)(C)C)cc1 [Example 117, 9-benzyl-2-(dimethyl-1,2-oxazol-4-yl)-6-{4-[3-({[(2S)-1-[(2S,4R)-4-hydroxy-2-({[4-(4-methyl-1,3-thiazol-5-yl)phenyl]methyl}carbamoyl)pyrrolidin-1-yl]-3,3-dimethyl-1-oxobutan-2-yl]carbamoyl}methoxy)propoxy]butoxy}-9H-carbazole-4-carboxamide]	< 0.01 µM	100%
Cc1ncsc1-c1ccc(CNC(=O)[C@@H]2C[C@@H](O)CN2C(=O)[C@H](C(C)C)n2cc(-c3ccnc(O[C@H]4C[C@@H](NC(=O)C[C@@H]5N=C(c6ccc(Cl)cc6)c6c(sc(C)c6C)-n6c(C)nnc65)C4)c3)cn2)cc1 [Example 178, (2S,4R)-4-hydroxy-N-{[4-(4-methyl-1,3-thiazol-5-yl)phenyl]methyl}-1-[(2S)-3-methyl-2-(4-{2-[(1,3-cis)-3-{2-[(9S)-7-(4-chlorophenyl)-4,5,13-trimethyl-3-thia-1,8,11,12-tetraazatricyclo[8.3.0.0^2,6]trideca-2(6),4,7,10,12-pentaen-9-yl]acetamido}cyclobutoxy]pyridin-4-yl}-1H-pyrazol-1-yl)butanoyl]pyrrolidine-2-carboxamide]	0.01 to 0.1 µM	99%
Cc1ncsc1-c1ccc([C@H](C)NC(=O)[C@@H]2C[C@@H](O)CN2C(=O)[C@@H](NC(=O)[C@@H](C)OCCCOCCNC(=O)C[C@@H]2N=C(c3ccc(Cl)cc3)c3c(sc(C)c3C)-n3c(C)nnc32)C(C)(C)C)cc1 [Example 154]	< 0.01 µM	94.5%
Cc1ncsc1-c1ccc([C@H](C)NC(=O)[C@@H]2C[C@@H](O)CN2C(=O)[C@@H](NC(=O)CCc2cc(F)cc(OC(C)CNC(=O)C[C@@H]3N=C(c4ccc(Cl)cc4)c4c(sc(C)c4C)-n4c(C)nnc43)c2)C(C)(C)C)cc1 (stereo partly shown) [Example 156]	< 0.01 µM	96.5%
Cc1ncsc1-c1ccc(CNC(=O)[C@@H]2C[C@@H](O)CN2C(=O)[C@@H](NC(=O)COCCOc2cccc(NC(=O)C[C@@H]3N=C(c4ccc(Cl)cc4)c4c(sc(C)c4C)-n4c(C)nnc43)c2)C(C)(C)C)cc1 [Example 81]	0.01 to 0.1 µM	99%
Cc1ncsc1-c1ccc([C@H](C)NC(=O)[C@@H]2C[C@@H](O)CN2C(=O)[C@@H](NC(=O)c2cc3cc(O[C@H](C)CNC(=O)C[C@@H]4N=C(c5ccc(Cl)cc5)c5c(sc(C)c5C)-n5c(C)nnc54)ccc3o2)C(C)(C)C)cc1 [Example 206, (2S,4R)-1-[(2S)-2-[(5-{[(2R)-1-{2-[(9S)-7-(4-chlorophenyl)-4,5,13-trimethyl-3-thia-1,8,11,12-tetraazatricyclo[8.3.0.0^2,^6]trideca-2(6),4,7,10,12-pentaen-9-yl]acetamido}propan-2-yl]oxy}-1-benzofuran-2-yl)formamido]-3,3-dimethylbutanoyl]-4-hydroxy-N-[(1S)-1-[4-(4-methyl-1,3-thiazol-5-yl)phenyl]ethyl]pyrrolidine-2-carboxamide]	< 0.01 µM	90%

The next lines start with results.

DC50	Structure (SMILES)	Emax
> 1 µM	Cc1ncsc1-c1ccc([C@H](C)NC(=O)[C@@H]2C[C@@H](O)CN2C(=O)[C@@H](C(C)C)n2cc(-c3cc(F)cc(O[C@H]4C[C@H](NC(=O)C[C@@H]5N=C(c6ccc(Cl)cc6)c6c(sc(C)c6C)-n6c(C)nnc65)C4)c3)cn2)cc1 [Example 253]	33.4%
< 0.01 µM	Cc1ncsc1-c1ccc([C@H](C)NC(=O)[C@@H]2C[C@@H](O)CN2C(=O)[C@@H](NC(=O)COc2ccc(N3CC[C@@H](NC(=O)C[C@@H]4N=C(c5ccc(Cl)cc5)c5c(sc(C)c5C)-n5c(C)nnc54)C3)nc2)C(C)(C)C)cc1 [Example 242]	98%
< 0.01 µM	Cc1ncsc1-c1ccc([C@H](C)NC(=O)[C@@H]2C[C@@H](O)CN2C(=O)[C@@H](NC(=O)COc2cc(F)cc(O[C@H]3C[C@@H](NC(=O)C[C@@H]4N=C(c5ccc(Cl)cc5)c5c(sc(C)c5C)-n5c(C)nnc54)C3)c2)C(C)(C)C)cc1 [Example 209]	90%
< 0.01 µM	Cc1ncsc1-c1ccc([C@H](C)NC(=O)[C@@H]2C[C@@H](O)CN2C(=O)[C@@H](NC(=O)CCc2ccc(O[C@H]3C[C@H](NC(=O)C[C@@H]4N=C(c5ccc(Cl)cc5)c5c(sc(C)c5C)-n5c(C)nnc54)C3)nc2)C(C)(C)C)cc1 [Example 172]	96%
> 1 µM	Cc1ncsc1-c1ccc([C@H](C)NC(=O)[C@@H]2C[C@@H](O)CN2C(=O)[C@@H](C(C)C)n2cc(-c3ccc(N4CC(NC(=O)C[C@@H]5N=C(c6ccc(Cl)cc6)c6c(sc(C)c6C)-n6c(C)nnc65)C4)nc3)cn2)cc1 [Example 255]	35.5%
> 1 µM	Cc1sc2c(c1C)C(c1ccc(Cl)cc1)=N[C@@H](CC(=O)N[C@H]1C[C@H](Oc3ccc(CC(=O)N[C@H](C(=O)N4C[C@H](O)C[C@H]4C(=O)N[C@@H](C)c4ccc(-c5nccn5C)cc4)C(C)(C)C)cc3)C1)c1nnc(C)n1-2 [Example 273]	< 5%
< 0.01 µM	Cc1ncsc1-c1ccc([C@H](C)NC(=O)[C@@H]2C[C@@H](O)CN2C(=O)[C@@H](NC(=O)CCc2cc(OCCNC(=O)C[C@@H]3N=C(c4ccc(Cl)cc4)c4c(sc(C)c4C)-n4c(C)nnc43)ccc2F)C(C)(C)C)cc1 [Example 142, (2S,4R)-1-[(2S)-2-{3-[5-(2-{2-[(9S)-7-(4-chlorophenyl)-4,5,13-trimethyl-3-thia-1,8,11,12-tetraazatricyclo[8.3.0.0^2,^6]trideca-2(6),4,7,10,12-pentaen-9-yl]acetamido}ethoxy)-2-fluorophenyl]propanamido}-3,3-dimethylbutanoyl]-4-hydroxy-N-[(1S)-1-[4-(4-methyl-1,3-thiazol-5-yl)phenyl]ethyl]pyrrolidine-2-carboxamide]	98%
> 1 µM	Cc1ncsc1-c1ccc(CNC(=O)[C@@H]2C[C@@H](O)CN2C(=O)[C@@H](C(C)C)n2cc(-c3cccc(OCCNC(=O)C[C@@H]4N=C(c5ccc(Cl)cc5)c5c(sc(C)c5C)-n5c(C)nnc54)c3)cn2)cc1 [Example 162]	7.62%
0.1 to 1 µM	Cc1ncsc1-c1ccc(CNC(=O)[C@@H]2C[C@@H](O)CN2C(=O)[C@@H](NC(=O)COCCn2cc(-c3ccc([C@H](C)NC(=O)C[C@@H]4N=C(c5ccc(Cl)cc5)c5c(sc(C)c5C)-n5c(C)nnc54)cc3)cn2)C(C)(C)C)cc1 [Example 86]	80%
0.1 to 1 µM	CC(=O)N[C@H](C(=O)N1C[C@H](O)C[C@H]1C(=O)NCc1ccc(-c2scnc2C)cc1OCCOCCCOc1ccc(C2=N[C@@H](CC(=O)Nc3ccccc3)c3nnc(C)n3-c3sc(C)c(C)c32)cc1)C(C)(C)C [Example 181, (2S,4R)-1-[(2S)-2-acetamido-3,3-dimethylbutanoyl]-4-hydroxy-N-{[4-(4-methyl-1,3-thiazol-5-yl)-2-[2-(3-{4-[(9S)-4,5,13-trimethyl-9-[(phenylcarbamoyl)methyl]-3-thia-1,8,11,12-tetraazatricyclo[8.3.0.0^2,^6]trideca-2(6),4,7,10,12-pentaen-7-yl]phenoxy}propoxy)ethoxy]phenyl]methyl}pyrrolidine-2-carboxamide]	80.5%
> 1 µM	Cc1ncsc1-c1ccc([C@H](C)NC(=O)[C@@H]2C[C@@H](O)CN2C(=O)[C@@H](C(C)C)n2cc(-c3cccc(O[C@H]4C[C@@H](NC(=O)C[C@@H]5N=C(c6ccc(Cl)cc6)c6c(sc(C)c6C)-n6c(C)nnc65)C4)c3)cn2)cc1 [Example 241]	49.8%
> 1 µM	Cc1ncsc1-c1ccc([C@H](C)NC(=O)[C@@H]2C[C@@H](O)CN2C(=O)[C@@H](C(C)C)n2cc(-c3ccnc(N4CC[C@@H](NC(=O)C[C@@H]5N=C(c6ccc(Cl)cc6)c6c(sc(C)c6C)-n6c(C)nnc65)C4)c3)cn2)cc1 [Example 267]	51.4%

From US11554171B2, “Compounds and methods for the targeted degradation of bromodomain-containing proteins” (Arvinas Operations, Inc., priority 2015, dated 2023)
